Source: US20200016200A1, “MODULATING CYTOTOXIC CELL LYTIC GRANULE POSITIONING TO PROMOTE DIFFUSE KILLING IN CELLULAR THERAPIES” (Baylor College of Medicine, priority 2016, published 2020)
Entries after “also recorded” stand apart in the source; their conditions may differ.

What was measured:
CD19 CAR-bearing T cells = assay: Live cell confocal microscopy of lytic granule positioning (LysoTracker Red); type: cell-based; settings: for stimulation-induced lytic granule convergence: ciliobrevin D 50 μM vs DMSO, straight out of culture or 0.5 h post cytokine (IL-7, IL-15) re-addition
Method: FIG. 17. […] Live cell confocal microscopy of CD19 CAR-bearing T cells untreated or treated with ciliobrevin D (30 and 100 μM). Lytic granule positioning was tracked using LysoTracker Red. […] Quantitative analyses of lytic granule distance from the MTOC are shown as a feature of the degree of granule convergence in CD19 CAR-bearing T cells.
FIG. 18. […] Live cell confocal microscopy of CD19 CAR-bearing T cells treated with DMSO or ciliobrevin D (50 μM). Lytic granule positioning was tracked using LysoTracker Red. […] The culture medium for CD19 CAR T cells contains IL-7 and IL-15. […] Quantitative analyses of lytic granule distance from the MTOC are shown as a feature of the degree of granule convergence in CD19 CAR-bearing T cells.
(§1) Specifically, the inventors have shown convergence in CD19 CAR T cells, CD19 CAR NK cells, PSCA CAR T cells, GD2 CAR NKT cells, HER2 CART cells, and glypican CAR T cells (FIG. 15A). Using a measurement of mean granule distance from the MTOC, CAR cells have varying degrees of converged lytic granules (FIG. 15B).

NK92 cells = assay: Flow cytometry-based degranulation assay (CD107a); type: cell-based, human; settings: NK92 with K562 targets, 2 hours, vs DMSO
Method: (§2) FIGS. 13A-13E. The effect of ciliobrevin D on degranulation and the increase of bystander killing by NK cells. Flow cytometry-based degranulation assay of NK cells treated with ciliobrevin D or DMSO as vehicle control. 721.221 cells were used as targets for YTS cells and K562 cells were used as targets for NK92 and eNK cells. DMSO or ciliobrevin D-treated NK cells were mixed with their respective target cells and co-cultured at 37° C. for 2 hours in the presence of anti-CD107a antibody, GolgiStop (BD) and analyzed using flow cytometry. Numbers in the representative flow cytometry plots indicate the percentage of CD107a positive eNK (13A), YTS (13B), or NK92 (13C) cells. Standard 4-hour 51Cr cytotoxicity assay of NK cells treated with ciliobrevin D (100 μM) or DMSO control. NK resistant Raji cells were used as innocent bystander cells. […] Bystander killing of Raji cells by YTS (13D, red) and NK92 (13E, red) cells both increased with ciliobrevin D treatment. Representative experiments from three independent experiments for YTS and NK92 cells were shown.
(§3) YTS-CD16, NK92-CD16 and eNK cells were labeled with CellTrace CFSE for 10 min at room temperature. S2 and S2-IC1 cells were pre-incubated with anti-S2 polyclonal IgG antibody at a final dilution of 1:1000 for 30 min at room temperature and washed three times. S2, S2-IgG, S2-IC1 and S2-IC1-IgG cells were then labeled with cell proliferation dye eFluor 670 for 5 min at room temperature. […] and 2×10^5 target cells were mixed in 200 μl complete R10 and incubated for 2 hours at 37° C. in the presence of anti-CD107a antibody and GolgiStop (BD), fixed with 1% paraformaldehyde in PBS and analyzed as described in flow-based conjugation assay.
(§4) Where applicable, YTS, NK92 and eNK cells were pretreated with […] ciliobrevin D (Millipore) for 30 min then washed. DMSO was used as the vehicle control for all inhibitor experiments. The inhibitor was also added into the co-culture with target cells.

eNK cells = assay: Flow cytometry-based degranulation assay (CD107a); type: cell-based, human; settings: eNK with K562 targets, 2 hours, vs DMSO
Method: as §2, §3, §4

YTS cells = assay: Flow cytometry-based degranulation assay (CD107a); type: cell-based, human; settings: YTS with 721.221 targets, 2 hours, vs DMSO
Method: as §2, §3, §4

GD2 CAR-bearing T cells = assay: Live cell confocal microscopy of lytic granule positioning (LysoTracker Red); type: cell-based; settings: ciliobrevin D 50 μM vs DMSO, straight out of culture or 0.5 h post cytokine (IL-7, IL-15) re-addition
Method: FIG. 20. […] Live cell confocal microscopy of GD2 CAR-bearing T cells treated with DMSO or ciliobrevin D (50 μM). Lytic granule positioning was tracked using LysoTracker Red. […] The culture medium for GD2 CAR T cells contains IL-7 and IL-15. […] Quantitative analyses of lytic granule distance from the MTOC are shown as a feature of the degree of granule convergence in GD2 CAR-bearing T cells.
as §1

## N#CC(C(=O)c1ccc(Cl)cc1Cl)=C1NC(=O)c2ccc(Cl)cc2N1 [ciliobrevin D, 2-(7-chloro-4-oxo-3,4-dihydroquinazolin-2(1H)-ylidene)-3-(2,4-dichlorophenyl)-3-oxopropanenitrile]
CD19 CAR-bearing T cells
  stimulation-induced lytic granule convergence: blocks stimulation-induced convergence
CD19 CAR-bearing T cells; listed as Ciliobrevin D
  stimulation-induced lytic granule convergence: dispersed lytic granules
CD19 CAR-bearing T cells; ciliobrevin D 30 and 100 μM vs untreated
  lytic granule positioning (granule distance from the MTOC): can disperse lytic granules; also recorded: dispersed lytic granules
NK92 cells
  proportion of cells that degranulated (CD107a positive): decreased
eNK cells
  proportion of cells that degranulated (CD107a positive): increased
YTS cells
  proportion of cells that degranulated (CD107a positive): decreased
GD2 CAR-bearing T cells
  stimulation-induced lytic granule convergence: blocks stimulation-induced convergence
GD2 CAR-bearing T cells; listed as Ciliobrevin D
  stimulation-induced lytic granule convergence: dispersed lytic granules
